In patent publication US5155215A, “Polychelating agents for image and spectral enhancement (and spectral shift)” (priority 1990, dated 1992):

Legend:
[1] = system: 7777-strain Morris hepatoma; assay: In vivo NMR image enhancement of a primary liver tumor (hepatoma); settings: after injection
Experimental: After two to three weeks the local tumors had reached an average diameter of 0.5 and 1.0 cm. The rats were then imaged both before and after i.v. injections of Gd-DTPA or microsphere Gd-DTPA. MR imaging was performed in a 30cm rf coil with a 0.35 Tesla, Diasonics clinical MRI system (as described above). Post-contrast images were obtained serially beginning immediately after injection and continuing for several hours thereafter.

[2] = MR imaging and proton T1 relaxation times in rats (DEAE-dextran agents); type: in vivo, Sprague-Dawley rats; settings: Gd 0.30 (polymer, dimeglumine) or 0.15 (microspheres) mmol/kg
Experimental: Test materials were injected intravenously into 500 gm Sprague-Dawley rats. at approximately 30 minutes, the rats were placed in the head coil of a 0.35 Tesla clinical imaging device (Diasonics Corp.), and T1-weighted images (using both a spin-echo pulse sequence at TR's of 0.5, 1.5 and 2.0, and an inversion recovery sequence) were obtained on image slices of 0.5 cm thickness taken through the liver and kidneys. T1 relaxation times were determined from the TR=0.5 and 2.0 data using area-averaging of signal intensities and a proprietary software program for calculations. At the completion of imaging, the rats were sacrificed by decapitation (exsanguination). Their livers, kidneys and spleens were excised, tested for in vitro correlations with the in vivo changes in proton T1 relaxation times and then placed in buffered formalin fixative for histopathologic evaluation.

[3] = T1 of freshly excised rat spleens after injection; type: in vivo, Sprague-Dawley rats
Text: Post-contrast images were obtained serially beginning immediately after the i.v. injection of contrast agents and continuing for several hours thereafter.

[4] = Whole-organ liver T1 after albumin microspheres; type: in vivo, CBA mice; settings: 0.1 mmol/kg Gd, 30 min
Experimental: Microspheres (Gd:DTPA:dimeglumine:albumin) were tested in vivo by injecting them intravenously into 25 gm CBA mice (2 animals per group), allowing 30 minutes for uptake and sequestration by liver Kupffer cells, sacrificing the mice, and testing the excised organs. […] Radioisotope was quantified in a standard gamma counter.
The T1-weighted proton relaxation times of mouse livers were quantified by determining the whole-organ T1 relaxation time in a 20 MHz NMR spectrometer.

[5] = Proton T1 relaxation times in mouse organs (DEAE-dextran agents); type: in vivo, CBA mice
Experimental: Test materials were injected i.v. into 25 gm CBA mice. At 30 min the mice were sacrificed by decapitation (exsanguination) and the excised livers and kidneys assessed for changes in proton T1 relaxation times (20 MHz; IR pulse sequence). Doses of test materials were made equivalent based on in vitro potency (ID50 analysis).

[6] = In vitro T1 relaxation of water protons (IBM PC 20 Minispectrometer, 20 MHz); type: physicochemical
Experimental: Microspheres were suspended at a concentration of 1 mg/ml by brief sonification. Because albumin microspheres have a fast-release (surface) component of Gd:DTPA as well as a controlled-release (interior) component, the spheres were washed, resuspended, and diluted serially for testing.
Thus, it was not necessary to wash and resuspend the materials prior to NMR testing.

[7] = In vivo NMR enhancement of normal rat tissues, image T1 and enhancement (0.35 Tesla Diasonics); design: species or system Sprague-Dawley rats
Text: Sprague-Dawley rats were imaged using a 0.35-Tesla, Diasonics clinical MR imaging system and a 30-cm rf coil. Three clinically relevant pulse sequences were used: 1) spin-echo with a TR of 0.5 seconds (for T1-weighted images), 2) inversion-recovery (IR) (for T1-weighted images), and 3) spin-echo with a TR of 2.0 seconds (for T2-weighted images). Diasonics software was used to calculate the area-averaged tissue intensities before and after injection of contrast agents. Dual pulse sequences (spin-echo, with TR's of 0.5 and 1.5 seconds or 1.0 and 2.0 seconds) were also used to calculate the in vivo T1 relaxation times. At the conclusion of imaging, the liver, spleen and kidneys were excised and their T1 (IR) and T2 (Carr-Purcell-Meiboom-Gill) relaxation times were determined at 37° C., using an IBM pC20 Minispectroneter. For these in vitro experiments, uninjected rats were used in place of preinjection controls.

[8] = cited from earlier work
[9] = Enhanced T1-weighted blood flow images in cardiac chambers; type: in vivo, rats; settings: i.v., rat heart chambers
Experimental: Gd:DTPA-dextran microspheres (at 0.03 mmoles Gd/kg) were injected i.v. at time zero into Sprayer-Dawley rats and images were obtained immediately and serially each 5 minutes×4 (spin-echo, multi-echo, TR=0.5 & 1.5).

[10] = Liver T1 decrease / liver image enhancement, effective dose; type: in vivo, mice and rats; settings: 30 min
[11] = system: human brain tumors; renal tumors; settings: cited from earlier work
[12] = cited from earlier work; remark: listed apart in the source
[13] = precipitation at body pH; cited from earlier work

## CNC[C@H](O)[C@@H](O)[C@H](O)[C@H](O)CO.CNC[C@H](O)[C@@H](O)[C@H](O)[C@H](O)CO.O=C([O-])CN(CCN(CC(=O)[O-])CC(=O)O)CCN(CC(=O)[O-])CC(=O)O.[Gd+3] [Gd:DTPA dimeglumine]
[1]
  Time by which tumor contrast was significantly reduced: 1.5 h
[2]; excised kidney, control 492 msec
  T1 (% of control), kidney, in vitro: 25%
[2]; excised liver, control 275 msec
  T1 (% of control), liver, in vitro: 88%
[2]; excised spleen, control 464 msec
  T1 (% of control), spleen, in vitro: 86%
[2]; kidney, imaging
  T1 (% of control), kidney, in vivo: 57%
[2]; liver, imaging
  T1 (% of control), liver, in vivo: 83%
[3]
  % Decrease in T1 of Spleen (35 min post vs. pre): 14.4%
[4]
  Liver T1, % of Control: 98.5%
[4]; saline 332
  Liver T1: 327 ms
[5]; kidney, 30 min, 0.23 mmol/kg DEAE agents, 0.47 mmol/kg Gd:DTPA dimeglumine, control 385 msec
  T1 (% of control), kidney: 24%
[5]; liver, 30 min, 0.23 mmol/kg DEAE agents, 0.47 mmol/kg Gd:DTPA dimeglumine, control 330 msec
  T1 (% of control), liver: 83%
[5]; mouse liver, very high doses
  Effectiveness at decreasing the T1 of liver: relatively ineffective
[6]; Gd, read-out: ID50 as molar concentration of Gd
  IC50: 90 µM
[6]; T1 to 50% of phosphate-buffered saline
  ID50 (total weight): 84 µg/mL
[6]; total material
  Material concentration required to produce a 50% decrease in the T1 of water protons: 90 µg/mL
[7]; kidney, 30 min, image T1
  % Decrease in T1, kidney (30 min post vs. pre): 55.7%
[7]; liver
  Time after which all liver enhancement was lost: 50 min
[7]; liver, 30 min, image T1
  % Decrease in T1, liver (30 min post vs. pre): 24.6%
[7]; visual inspection
  Bone marrow image enhancement: not Gd:DTPA dimeglumine
[8]; typically 15 Mhz
  Relaxivity at higher proton Larmor frequencies: marked decrease in relaxivity
[9]
  Enhancement of blood flow images: almost completely ineffective
[10]
  Change in liver T1's at the usual 30-minute imaging interval: minimal changes in liver T1's
[11]; human, in vivo
  Enhancement of renal tumors: enhanced satisfactorily
[11]; preliminary clinical results
  Enhancement of human brain tumors: almost all human brain tumors undergo significant enhancement
[12]; Weinman et al.
  Bloodstream clearance (1/2): 20 min
  Quantity cleared by the kidneys: > 90%
[12]; in vivo
  Imaging window: ca. 30 minutes
  Number of optimal images after each injection: ca. 2

## [Gd] [Gd, gadolinium]
[8]; Gd, seven unpaired 4f electrons
  Paramagnetic dipole: 7.9 Bohr magnetons
[13]
  Toxicity of the free form: quite toxic

## O=C(O)CN1CCN(CC(=O)O)CCN(CC(=O)O)CCN(CC(=O)O)CC1 [DOTA, 1,4,7,10-tetraazacyclododecane-N,N',N"-tetraacetic acid]
[8]; wide range of Larmor frequencies
  Relaxivity relative to Gd-DTPA: approximately 2 times greater
